Values of other authors, collected in US20050101548A1, “Antimicrobial derivatives” (priority 2003, published 2005).

Key:
[1] = test system: macrolide-sensitive and resistant bacteria

Structure (SMILES): CC[C@H]1OC(=O)[C@H](C)[C@@H](O[C@H]2C[C@@](C)(OC)[C@@H](O)[C@H](C)O2)[C@H](C)[C@@H](O[C@@H]2O[C@H](C)C[C@H](N(C)C)[C@H]2O)[C@](C)(O)C[C@@H](C)C(=O)[C@H](C)[C@@H](O)[C@]1(C)O [erythromycin A]
- activity against Gram-negative bacteria (Gram-negative bacteria): only weak activity

Structure (SMILES): C=C1CO[C@@H]2[C@@H](C)/C(=N/C(C)=O)[C@H](C)C[C@@](C)(OC1)[C@H](O[C@@H]1O[C@H](C)C[C@H](N(C)C)[C@H]1O)[C@@H](C)C(=O)[C@@H](C)C(=O)O[C@H](CC)[C@@]2(C)O [EP-1304]
- activity against some macrolide-sensitive and resistant bacteria in vivo [1]: exhibits activity

Structure (SMILES): CC[C@H]1OC(=O)[C@H](C)C(=O)[C@H](C)[C@@H](O[C@@H]2O[C@H](C)C[C@H](N(C)C)[C@H]2O)[C@@]2(C)C[C@@H](C)/C(=N\C(C)=O)[C@H](C)[C@@H](OCC(=NOCc3ccccc3)CO2)[C@]1(C)O [EP-1562]
- antibacterial activity against S. pneumoniae (S. pneumoniae): possess antibacterial activity

Structure (SMILES): CC[C@H]1OC(=O)[C@H](C)C(=O)[C@H](C)[C@@H](O[C@@H]2O[C@H](C)C[C@H](N(C)C)[C@H]2O)[C@@]2(C)C[C@@H](C)/C(=N\C(C)=O)[C@H](C)[C@@H](OCC(=NOCc3ccc(-c4cccnc4)s3)CO2)[C@]1(C)O [EP-12728]
- antibacterial activity against S. pneumoniae (S. pneumoniae): possess antibacterial activity
